Data as given in publication PMC7914897, “Cytotoxic Potential of a-Azepano- and 3-Amino-3,4-SeCo-Triterpenoids” (International Journal of Molecular Sciences, 2021).
Read-outs that look alike come from different tables or passages of the source.

What was measured:
OVCAR-3 (Ovarian cancer) = test: cells; conditions: Homo sapiens
Colon Cancer subpanel = test: NCI-60 screen, subpanel; conditions: Homo sapiens
CNS cancer subpanel = test: NCI-60 screen, subpanel; conditions: Homo sapiens
Ovarian Cancer subpanel = test: NCI-60 screen, subpanel; conditions: Homo sapiens
Renal Cancer subpanel = test: NCI-60 screen, subpanel; conditions: Homo sapiens
CCRF-CEM (Leukemia) = test: NCI-60 screen (SRB, 48 h); conditions: Homo sapiens
MOLT-4 (Leukemia) = test: NCI-60 screen (SRB, 48 h); conditions: Homo sapiens
EKVX (NSC lung cancer) = test: NCI-60 screen (SRB, 48 h); conditions: Homo sapiens
HOP-62 (NSC lung cancer) = test: NCI-60 screen (SRB, 48 h); conditions: Homo sapiens
HOP-92 (NSC lung cancer) = test: NCI-60 screen (SRB, 48 h); conditions: Homo sapiens
[1] = test system: NCI-H226 (NSC lung cancer); test: NCI-60 screen (SRB, 48 h); conditions: Homo sapiens
[2] = test system: NCI-H322M (NSC lung cancer); test: NCI-60 screen (SRB, 48 h)
COLO 205 (Colon cancer) = test: NCI-60 screen (SRB, 48 h); conditions: Homo sapiens
HT29 (Colon cancer) = test: NCI-60 screen (SRB, 48 h); conditions: Homo sapiens
SW-620 (Colon cancer) = test: NCI-60 screen (SRB, 48 h); conditions: Homo sapiens
SF-295 (CNS cancer) = test: NCI-60 screen (SRB, 48 h); conditions: Homo sapiens
SNB-75 (CNS cancer) = test: NCI-60 screen (SRB, 48 h)
M14 (Melanoma) = test: NCI-60 screen (SRB, 48 h); conditions: Homo sapiens
SK-MEL-28 (Melanoma) = test: NCI-60 screen (SRB, 48 h); conditions: Homo sapiens
OVCAR-5 (Ovarian cancer) = test: NCI-60 screen (SRB, 48 h)
SK-OV-3 (Ovarian cancer) = test: NCI-60 screen (SRB, 48 h); conditions: Homo sapiens
A498 (Renal cancer) = test: NCI-60 screen (SRB, 48 h); conditions: Homo sapiens
CAKI-1 (Renal cancer) = test: NCI-60 screen (SRB, 48 h)
UO-31 (Renal cancer) = test: NCI-60 screen (SRB, 48 h)
DU-145 (Prostate cancer) = test: NCI-60 screen (SRB, 48 h); conditions: Homo sapiens
T-47D (Breast cancer) = test: NCI-60 screen (SRB, 48 h); conditions: Homo sapiens, T47D
[3] = test system: panel of approximately 60 cancer cell lines; test: NCI-60 screen (SRB, 48 h), full panel

In the case of CC1(C)NCCC[C@]2(C)[C@H]3C=CC4=C5C[C@@](C)(CO)CC[C@]5(C)CC[C@@]4(C)[C@]3(C)CC[C@@H]12 [Compound 6, azepano-glycyrrhetol-diene], the GI50 (OVCAR-3 (Ovarian cancer); OVCAR-3) is reported as 2.69 µM, the IC (TGI) (OVCAR-3 (Ovarian cancer); OVCAR-3, 48 h, read-out: TGI) is reported as 7.06 µM and the CC50 (OVCAR-3 (Ovarian cancer); OVCAR-3, read-out: LC50) is reported as 34.8 µM. The IC (TGI) (Colon Cancer subpanel; 48 h, read-out: TGI MG_MID) was 16.7 µM, the GI50 (Colon Cancer subpanel; read-out: GI50 MG_MID) was 5.11 µM and the CC50 (Colon Cancer subpanel; read-out: LC50 MG_MID) was 48.2 µM. For the same compound, the IC (TGI) (CNS cancer subpanel; 48 h, read-out: TGI MG_MID) was 13.5 µM, the GI50 (CNS cancer subpanel; read-out: GI50 MG_MID) was 4.53 µM and the CC50 (CNS cancer subpanel; read-out: LC50 MG_MID) was 39.7 µM. The IC (TGI) (Ovarian Cancer subpanel; 48 h, read-out: TGI MG_MID) was 15.4 µM, the GI50 (Ovarian Cancer subpanel; read-out: GI50 MG_MID) was 4.67 µM and the CC50 (Ovarian Cancer subpanel; read-out: LC50 MG_MID) was 41.9 µM. It also gave an IC (TGI) (Renal Cancer subpanel; 48 h, read-out: TGI MG_MID) of 11.9 µM, a GI50 (Renal Cancer subpanel; read-out: GI50 MG_MID) of 4.01 µM and a CC50 (Renal Cancer subpanel; read-out: LC50 MG_MID) of 35.8 µM. For the same compound, the GI50 (CCRF-CEM (Leukemia)) was 3.52 µM, the IC (TGI) (CCRF-CEM (Leukemia); 48 h, read-out: TGI) was 14.5 µM and the CC50 (CCRF-CEM (Leukemia); read-out: LC50) was 65.3 µM. It also gave a GI50 (MOLT-4 (Leukemia); MOLT-4) of 2.46 µM, an IC (TGI) (MOLT-4 (Leukemia); MOLT-4, 48 h, read-out: TGI) of 6.8 µM and a CC50 (MOLT-4 (Leukemia); MOLT-4, read-out: LC50) of 38.2 µM. It also gave a GI50 (EKVX (NSC lung cancer)) of 2.77 µM, an IC (TGI) (EKVX (NSC lung cancer); 48 h, read-out: TGI) of 8.27 µM and a CC50 (EKVX (NSC lung cancer); read-out: LC50) of 38.4 µM. The GI50 (HOP-62 (NSC lung cancer); HOP-62) was 2.3 µM, the IC (TGI) (HOP-62 (NSC lung cancer); HOP-62, 48 h, read-out: TGI) was 5.16 µM and the CC50 (HOP-62 (NSC lung cancer); HOP-62, read-out: LC50) was 16.7 µM. It also gave a GI50 (HOP-92 (NSC lung cancer); HOP-92) of 3.1 µM, an IC (TGI) (HOP-92 (NSC lung cancer); HOP-92, 48 h, read-out: TGI) of 14.6 µM and a CC50 (HOP-92 (NSC lung cancer); HOP-92, read-out: LC50) of 47 µM. For the same compound, the GI50 ([1]; NCI-H226) was 4 µM, the IC (TGI) ([1]; NCI-H226, 48 h, read-out: TGI) was 16.9 µM and the CC50 ([1]; NCI-H226, read-out: LC50) was 82.2 µM. The “Growth % of the Most Sensitive Cell Lines” value (“Growth %” below) ([2]; 1 dose 10 µM) was −99.73%, the GI50 ([2]; Homo sapiens) was 4.78 µM and the IC (TGI) ([2]; Homo sapiens, 48 h, read-out: TGI) was 16.9 µM. It also gave a CC50 ([2]; Homo sapiens, read-out: LC50) of 42.1 µM, a GI50 (COLO 205 (Colon cancer); COLO 205) of 3.63 µM and an IC (TGI) (COLO 205 (Colon cancer); COLO 205, 48 h, read-out: TGI) of 13.9 µM. The CC50 (COLO 205 (Colon cancer); COLO 205, read-out: LC50) was 43 µM, the GI50 (HT29 (Colon cancer); HT-29) was 3.25 µM and the IC (TGI) (HT29 (Colon cancer); HT-29, 48 h, read-out: TGI) was 13.8 µM. For the same compound, the CC50 (HT29 (Colon cancer); HT-29, read-out: LC50) was 41.8 µM, the GI50 (SW-620 (Colon cancer); SW-620) was 5.76 µM and the IC (TGI) (SW-620 (Colon cancer); SW-620, 48 h, read-out: TGI) was 18.8 µM. It also gave a CC50 (SW-620 (Colon cancer); SW-620, read-out: LC50) of 47 µM, a GI50 (SF-295 (CNS cancer); SF-295) of 2 µM and an IC (TGI) (SF-295 (CNS cancer); SF-295, 48 h, read-out: TGI) of 4.04 µM. It also gave a CC50 (SF-295 (CNS cancer); SF-295, read-out: LC50) of 8.15 µM, a GI50 (SNB-75 (CNS cancer); Homo sapiens, SNB-75) of 3.43 µM and an IC (TGI) (SNB-75 (CNS cancer); Homo sapiens, SNB-75, 48 h, read-out: TGI) of 14.8 µM. The CC50 (SNB-75 (CNS cancer); Homo sapiens, SNB-75, read-out: LC50) was 46.5 µM, the “Growth %” value (SNB-75 (CNS cancer); SNB-75, 1 dose 10 µM) was −97.70% and the GI50 (M14 (Melanoma); M14) was 3.91 µM. For the same compound, the IC (TGI) (M14 (Melanoma); M14, 48 h, read-out: TGI) was 14.8 µM, the CC50 (M14 (Melanoma); M14, read-out: LC50) was 41.5 µM and the GI50 (SK-MEL-28 (Melanoma); SK-MEL-28) was 5.87 µM. It also gave an IC (TGI) (SK-MEL-28 (Melanoma); SK-MEL-28, 48 h, read-out: TGI) of 18.4 µM, a CC50 (SK-MEL-28 (Melanoma); SK-MEL-28, read-out: LC50) of 44 µM and a GI50 (OVCAR-5 (Ovarian cancer); Homo sapiens, OVCAR-5) of 1.24 µM. For the same compound, the IC (TGI) (OVCAR-5 (Ovarian cancer); Homo sapiens, OVCAR-5, 48 h, read-out: TGI) was 25.3 µM, the CC50 (OVCAR-5 (Ovarian cancer); Homo sapiens, OVCAR-5, read-out: LC50) was 51.6 µM and the “Growth %” value (OVCAR-5 (Ovarian cancer); OVCAR-5, 1 dose 10 µM) was −98.74%. The GI50 (SK-OV-3 (Ovarian cancer); SK-OV-3) was 14.5 µM, the IC (TGI) (SK-OV-3 (Ovarian cancer); SK-OV-3, 48 h, read-out: TGI) was 28.6 µM and the CC50 (SK-OV-3 (Ovarian cancer); SK-OV-3, read-out: LC50) was 56.2 µM. For the same compound, the GI50 (A498 (Renal cancer); A498) was 11.4 µM, the IC (TGI) (A498 (Renal cancer); A498, 48 h, read-out: TGI) was 24.5 µM and the CC50 (A498 (Renal cancer); A498, read-out: LC50) was 52.7 µM. For the same compound, the “Growth %” value (CAKI-1 (Renal cancer); CAKI-1, 1 dose 10 µM) was −96.49%, the GI50 (CAKI-1 (Renal cancer); Homo sapiens, CAKI-1) was 3.7 µM and the IC (TGI) (CAKI-1 (Renal cancer); Homo sapiens, CAKI-1, 48 h, read-out: TGI) was 13.8 µM. For the same compound, the CC50 (CAKI-1 (Renal cancer); Homo sapiens, CAKI-1, read-out: LC50) was 39.3 µM, the GI50 (UO-31 (Renal cancer); Homo sapiens, UO-31) was 3.59 µM and the IC (TGI) (UO-31 (Renal cancer); Homo sapiens, UO-31, 48 h, read-out: TGI) was 15.7 µM. For the same compound, the CC50 (UO-31 (Renal cancer); Homo sapiens, UO-31, read-out: LC50) was 42.1 µM, the “Growth %” value (UO-31 (Renal cancer); UO-31, 1 dose 10 µM) was −98.13% and the GI50 (DU-145 (Prostate cancer); DU-145) was 2.25 µM. The IC (TGI) (DU-145 (Prostate cancer); DU-145, 48 h, read-out: TGI) was 5.02 µM, the CC50 (DU-145 (Prostate cancer); DU-145, read-out: LC50) was 13.8 µM and the GI50 (T-47D (Breast cancer)) was 5.38 µM. The IC (TGI) (T-47D (Breast cancer); 48 h, read-out: TGI) was 20.9 µM, the CC50 (T-47D (Breast cancer); read-out: LC50) was 59.5 µM and the “Positive Cytotoxic Effect (cell lines with percent growth < 0 / total)” value ([3]; 1 dose 10 µM) was 59/59. The “number of cancer cell lines the compound was active against” value ([3]; 1 dose 10 µM) was “pronounced antiproliferative effect against the whole NCI-60 cancer cell line panel”, the activity at 10 µM ([3]; Homo sapiens, 48 h, read-out: Mean Growth, %) was -77.2% and the activity at 10 µM ([3]; Homo sapiens, 48 h, read-out: Range of Growth, %) was -99.7 to -5.08%. The IC (TGI) ([3]; Homo sapiens, 48 h, read-out: TGI MG_MID60, average over all cell lines) was 13.2 µM, the GI50 ([3]; Homo sapiens, read-out: GI50 MG_MID60) was 4.21 µM and the GI50 ([3]; Homo sapiens, read-out: GI50 against all human tumor cell lines) was < 15 µM. It also gave a CC50 ([3]; Homo sapiens, read-out: LC50 MG_MID60, average over all cell lines) of 41.9 µM.
